Source: patent US20050261365A1, “Transthyretin stabilization” (The Scripps Research Institute, priority 2004, published 2005)
Entries after “also recorded” stand apart in the source; their conditions may differ.

Experiments:
WT-TTR [1] = target: T1, WT-TTR (Homo sapiens, UniProt P02766); test: time course analysis of WT-TTR fibril formation inhibition; assay type: biochemical; conditions: inhibitor 7.2 and 3.6 μM, WT-TTR 3.6 μM, pH 4.4, turbidity at 500 nm
T1 construct: made in house
Procedure: Time course analysis of WT-TTR fibril formation inhibition by compounds 25, 47, and 64. Compounds 25, 47, and 64 were dissolved in DMSO to provide 7.2 mM primary stock solutions (10× stocks), from which 5- and 10-fold DMSO dilutions yielded 1.44 mM (2×) and 0.72 mM (1×) secondary stock solutions, respectively. 495 μL of 0.4 mg/mL (7.2 μM) WT-TTR solution (10 mM sodium phosphate, 100 mM KCl, and 1 mM EDTA, pH 7.2), and 5 μL of either the 1.44 or 0.72 mM inhibitor secondary stock solutions were added to disposable UV cuvettes, vortexed briefly, then incubated for 30 min at 25° C. The pH was then adjusted to 4.4 with addition of 500 μL of acidic buffer (100 mM acetate, 100 mM KCl, 1 mM EDTA, pH 4.2), and the final 1 mL solutions were vortexed again and incubated in the dark at 37° C. without agitation. At 0, 4, 8, 12, 25, 49, 74, 100, 122, 145, and 169 h time points after acidification, the solutions were vortexed and the turbidity at 500 nm was measured. Control samples containing 5 μL of pure DMSO were prepared and analyzed as above for comparison. Small molecule and TTR control samples were prepared in groups of 10 to prevent disturbance of the cuvettes during incubation. Samples were discarded after their turbidities were measured.
FIG. 10 is a plot of the timecourse analysis of WT-TTR (3.6 μM) fibril formation mediated by partial acid denaturation in the absence (▴) and presence of 7.2 μM (⋄) and 3.6 μM (◯) inhibitors 25, 47, and 64, as measured by turbidity at 500 nm (see color scheme within Figure to differentiate inhibitors). It is hard to discern which compound is most efficacious in the black and white plot.

WT-TTR tetramer = target: T2, WT-TTR tetramer (Homo sapiens, UniProt P02766); test: time course analysis of WT-TTR tetramer dissociation by linked monomer unfolding in urea; assay type: biochemical; conditions: for rate of TTR tetramer dissociation in 6M urea: inhibitor 7.2 and 3.6 μM, TTR 3.6 μM, far-UV CD
T2 construct: made in house
From the text: The ability of these inhibitors to impose kinetic stability on tetrameric TTR is best evaluated by assessing the rate of TTR tetramer dissociation (Hammarstrom, P.; et al. Science 2003, 299, 713-716; Hammarstrom, P.; et al. Proc. Natl. Acad. Sci. USA 2002, 99, 16427-16432). Under acidic conditions tetramer dissociation leads to amyloidogenesis, whereas in the presence of chaotropes (6M urea), tetramer dissociation leads to monomer unfolding. The influence of inhibitors 25, 47 and 64, representing the three structural classes of dibenzofuran-based inhibitors, on the rates of tetramer dissociation under acid- and urea-mediated denaturing conditions was probed. […] The rate of TTR tetramer dissociation in 6M urea is easily monitored by linking the slow quaternary structural changes to rapid tertiary structural changes that are easily monitored by spectroscopic methods (Hammarstrom, P.; et al. Proc. Natl. Acad. Sci. USA 2002, 99, 16427-16432).
Time course analysis of WT-TTR tetramer dissociation inhibition by compounds 25, 47, and 64 evaluated by linked-monomer unfolding in urea. Compounds 25, 47, and 64 were dissolved in DMSO to provide 10 mM primary stock solutions, from which 10-fold EtOH dilutions yielded 1 mM secondary stock solutions. 200 μL of 1.0 mg/mL (18 μM) WT-TTR solution (50 mM sodium phosphate, 100 mM KCl, and 1 mM EDTA, pH 7.2), and either 7.2 or 3.6 μL (2× and 1×, respectively) of 1 mM inhibitor secondary stock solutions were added to 2 mL eppendorf tubes, vortexed briefly, and incubated for 15 min at 25° C. 100 μL of the TTR•inhibitor solutions were added to 900 μL of urea buffer (6.67 M urea, 50 mM sodium phosphate, 100 mM KCl, 1 mM EDTA, pH 7.2), and the final 1 mL solutions were vortexed again and incubated in the dark at 25° C. without agitation. At 0, 4, 11, 24, 49, 73, 97, 122, 146, and 170 h time points after mixing with urea, the circular dichroism spectra were measured between […], with scanning every 0.5 nm and averaging for 5 s. […] Control samples containing 7.2 μL of 10% DMSO in EtOH were prepared and analyzed as above for comparison. […] TTR tetramer dissociation is linked to the rapid (˜500,000× faster) monomer denaturation as measured through this β-sheet loss (Hammarstrom, P.; et al. Proc. Natl. Acad. Sci. USA 2002, 99, 16427-16432).
FIG. 11 is a plot of the timecourse analysis of WT-TTR (3.6 μM) tetramer dissociation (6.0 M urea) in the absence (▴) and presence of 7.2 μM (⋄) and 3.6 μM (◯) concentrations of inhibitors 25, 47, and 64 (see color scheme within Figure to differentiate inhibitors). Slow tetramer dissociation is not detectable by far-UV CD spectroscopy, but this process is linked to rapid (˜500,000× faster) monomer denaturation as monitored by loss of β-sheet content easily followed by circular dichroism spectroscopy. […]

[2] = precipitation of small molecules under acid-mediated amyloidogenic conditions in the absence of TTR; assay type: physicochemical; conditions: 3.6 μM, pH 4.4, 37° C., 72 h
Procedure: (§1) TTR amyloid inhibition efficacy was probed using a stagnant fibril formation assay described previously, wherein partial denaturation was triggered by acidification (pH 4.4, 37° C.) (Colon, W.; Kelly, J. W. Biochemistry 1992, 31, 8654-8660). Briefly, a test compound (7.2 or 3.6 μM) is incubated with TTR (3.6 μM) for 30 min in pH 7 buffer. Amyloidogenesis is then initiated by lowering to pH 4.4, where maximal fibril formation is observed with WT-TTR after 72 h (37° C.). […] From experience we know that excellent inhibitors allow <10% fibril formation at a small molecule concentration of 7.2 μM and <40% fibril formation at a concentration equal to that of WT-TTR (3.6 μM) (Hammarstrom, P.; et al. Science 2003, 299, 713-716; Klabunde, T.; et al. Nature Struct. Biol. 2000, 7, 312-321; Razavi, H.; et al. Angew Chem 2003, 42, 2758-2761; Miroy, G. J.; et al. Proc. Natl. Acad. Sci. USA 1996, 93, 15051-15056; Peterson, S. A.; et al. Proc. Natl. Acad. Sci. USA 1998, 95, 12956-12960; Baures, P. W.; et al. Bioorg. Med. Chem. 1998, 6, 1389-1401; Baures, P. W.; et al. Bioorg. Med. Chem. 1999, 7, 1339-1347; Petrassi, H. M.; et al. J. Am. Chem. Soc. 2000, 122, 2178-2192; McCammon, M. G.; et al. Structure 2002, 10, 851-863; Oza, V. B.; et al. J. Med. Chem. 2002, 45, 321-332; Saccheftini, J. C.; et al. Nature Rev. Drug Disc. 2002, 1, 267-275; Green, N. S.; et al. J. Am. Chem. Soc. 2003, 125, 13404-13414; Adamski-Werner, S. L.; et al. J. Med. Chem. 2004, 47, 355-374; Miller Sean, R.; et al. Lab. Inv. 2004, 84, 545-552). […] Therefore, when both the ligand and TTR are at equal concentrations, a population of TTR•I, TTR•I2 and unliganded TTR is observed, dictated by the dissociation constants. It is now established by other studies that inhibitor occupancy of only one of the two TTR binding sites is sufficient to stabilize the entire tetramer against amyloidogenesis (Wiseman, R. L.; et al. J. Am. Chem. Soc. 2005, in press). This is further supported by the observation herein that twenty-six of these dibenzofurans are excellent TTR amyloidogenesis inhibitors (<40% fibril formation) at a concentration equal to that of TTR (3.6 μM each, FIG. 3).

[3] = target: T3, TTR in human blood plasma (Homo sapiens, UniProt P02766); test: plasma TTR binding selectivity, antibody capture method; conditions: inhibitor 10.8 μM, 24 h, 37° C.
T3 construct: from tissue; host or cells: human blood plasma
Procedure: Inhibitor binding selectivity to TTR in human blood plasma was assessed using a previously established antibody capture method (Purkey, H. E.; et al. Proc. Natl. Acad. Sci. USA 2001, 98, 5566-5571). In this evaluation, inhibitors (10.8 μM, ˜2-3× the natural concentration of TTR) are incubated in human blood plasma for 24 h at 37° C. Quenched sepharose resin is then added to the plasma to remove any small molecules that would bind to the resin as opposed to TTR. TTR and any TTR-bound small molecule is then immunocaptured using a polyclonal TTR antibody covalently attached to sepharose resin. After washing the resin (5×10 min washes), the antibody-TTR complex is dissociated at high pH and analyzed by RP-HPLC. The relative stoichiometry between TTR and inhibitor is then calculated from their HPLC peak areas using standard curves.
(§2) The procedures used for bacterial expression of TTR (Lai, Z.; et al. Biochemistry 1996, 35, 6470-6482), the stagnant fibril formation assay (Colon, W.; Kelly, J. W. Biochemistry 1992, 31, 8654-8660; Lai, Z.; et al. Biochemistry 1996, 35, 6470-6482), the blood plasma binding selectivity assay (Purkey, H. E.; et al. Proc. Natl. Acad. Sci. USA 2001, 98, 5566-5571), and analytical ultracentrifugation (Lashuel, H. A.; et al. Biochemistry 1998, 37, 17851-17864) have all been described in detail previously.

WT-TTR [4] = target: T1, WT-TTR; test: stagnant acid-mediated fibril formation assay (turbidity); assay type: biochemical; conditions: WT-TTR 3.6 μM; for inhibitor potency against fibril formation: inhibitor 3.6 μM, pH 4.4, 72 h
Procedure: as §1, §2

SMILES | precipitation in the absence of TTR [2] | inhibitor potency against fibril formation (WT-TTR [4]) | further results
O=C(O)c1cccc2c1oc1c(C(=O)O)ccc(Nc3ccccc3C(F)(F)F)c12 [Compound 25] | no measurable precipitation | – | rate of TTR amyloidogenesis mediated by partial acidification relative to control (WT-TTR [1]): dramatically slowed in a dose-dependent fashion; order of effect on tetramer dissociation at the end of the time course (WT-TTR tetramer; after 169 hours, 6.0 M urea, FIG. 11): most effective in dissociating tetramers; rate of TTR tetramer dissociation in 6M urea (WT-TTR tetramer): markedly slowed in a dose-dependent fashion
O=C(O)c1cccc2c1oc1c(C(=O)O)ccc(Nc3cccc(C(F)(F)F)c3)c12 [Compound 26] | no measurable precipitation | – | –
O=C(O)c1cccc2c1oc1c(C(=O)O)ccc(Nc3cc(Cl)cc(Cl)c3)c12 [Compound 30] | no measurable precipitation | – | –
O=C(O)c1cccc2c1oc1c(C(=O)O)ccc(Nc3cc(C(F)(F)F)cc(C(F)(F)F)c3)c12 [Compound 31] | – | – | binding selectivity to TTR in human blood plasma [3]: all but two (31 and 35) exhibit dramatically increased binding selectivity
O=C(O)c1cccc(Nc2ccc(C(=O)O)c3oc4c(C(=O)O)cccc4c23)c1 [Compound 33] | – | amongst the most potent | binding selectivity to TTR in human blood plasma [3]: modest
O=C(O)c1cc(Nc2ccc(C(=O)O)c3oc4c(C(=O)O)cccc4c23)cc(C(=O)O)c1 [Compound 34] | – | all the inhibitors (except 34) display increased potency | inhibition of WT-TTR fibril formation (WT-TTR [4]; inhibitor 7.2 μM, pH 4.4, 37° C., 72 h): not as effective; also recorded: all but one (34) completely inhibit fibril formation
O=C(O)c1ccc(Nc2ccc(C(=O)O)c3oc4c(C(=O)O)cccc4c23)cc1 [Compound 35] | – | – | binding selectivity to TTR in human blood plasma [3]: all but two (31 and 35) exhibit dramatically increased binding selectivity
O=C(O)c1cccc2c1oc1c(C(=O)O)ccc(Nc3ccccc3F)c12 [Compound 36] | – | most potent | –
O=C(O)c1cccc2c1oc1c(C(=O)O)ccc(Oc3cccc(C(F)(F)F)c3)c12 [Compound 45] | no measurable precipitation | – | –
O=C(O)c1cccc2c1oc1c(C(=O)O)ccc(-c3cc(F)cc(F)c3)c12 [Compound 62] | no measurable precipitation | – | –
O=C(O)c1cccc2c1oc1c(C(=O)O)ccc(-c3cc(Cl)cc(Cl)c3)c12 [Compound 63] | – | most potent | –
O=C(O)c1cccc2c1oc1c(C(=O)O)ccc(-c3cc(C(F)(F)F)cc(C(F)(F)F)c3)c12 [Compound 64] | – | – | rate of TTR amyloidogenesis mediated by partial acidification relative to control (WT-TTR [1]): dramatically slowed in a dose-dependent fashion; rate of TTR tetramer dissociation in 6M urea (WT-TTR tetramer): markedly slowed in a dose-dependent fashion
O=C(O)c1cccc2c1oc1c(C(=O)O)ccc(-c3ccccc3F)c12 [Compound 67] | – | most potent | –
O=C(O)c1cccc(-c2ccc(C(=O)O)c3oc4c(C(=O)O)cccc4c23)c1 [Compound 69] | – | amongst the most potent | binding selectivity to TTR in human blood plasma [3]: modest
